Measured values from US20090054486A1, “POLYMORPHIC FORM XVI OF FEXOFENADINE HYDROCHLORIDE” (Teva Pharmaceuticals USA, Inc., priority 2002, published 2009).
Structures can show the parent of a compound that is named as a salt.

Experiment: Storage stability against transformation to other crystalline forms
Format: physicochemical
Experimental: Fexofenadine hydrochloride Form XVI is substantially stable during storage. Fexofenadine hydrochloride Form XVI is stable against transformation to other crystalline forms upon storage at relative humidity of up to about 100% for at least about 1 week, and storage at about 40° C. and about 75% relative humidity for at least about 6 months. The conversion is preferably less than about 5%, more preferably less than about 2% by weight.
In another aspect, the present invention provides for processes for preparation of fexofenadine hydrochloride Form XVI, which allow preparing fexofenadine HCl form XVI substantially free of other polymorphic forms of fexofenadine HCl, including amorphous form. As used herein, “substantially free” refers to less than about 5% on a weight basis, preferably less than about 2%, weight of polymorphic forms other than Form XVI compared to the weight of all the polymorphic forms, including Form XVI. A suitable method for determining the presence of other polymorphic forms is with X-Ray Powder diffraction.

## CC(C)(C(=O)O)c1ccc(C(O)CCCN2CCC(C(O)(c3ccccc3)c3ccccc3)CC2)cc1 (stereo not drawn) [Fexofenadine hydrochloride Form XVI, 4-[4-[4-(hydroxydiphenylmethyl)-1-piperidinyl]-1-hydroxybutyl]-α,α-dimethylbenzeneacetic acid]
Storage at about 40° C. and about 75% relative humidity
  time stable against transformation to other crystalline forms upon storage: at least 6 months
Storage at relative humidity of up to about 100%
  time stable against transformation to other crystalline forms upon storage: at least 1 week
